According to ChEMBL document CHEMBL1201862, “PubChem BioAssay data set” (2004):
Activity calls are given as the source filed them.

Tests used:
[1] = molecular target: G-protein coupled receptor 183 (Homo sapiens, UniProt P32249); experiment: SAR confirmation of small molecule antagonists of the EBI2 receptor via a luminescent beta-arrestin assa.; type: functional
[2] = THP-1 cell cytotoxicity, dose response, cytotoxicity control for Vif-APOBEC3G degradation inhibitor project, THP-1 cells (AID 1117359); type: functional; details: Human immunodeficiency virus 1, THP-1
[3] = molecular target: NAD-dependent protein deacylase sirtuin-5, mitochondrial (Homo sapiens, UniProt Q9NXA8); experiment: SIRT5 desuccinylase inhibitors, dose response, biochemical, fluorescence imaging, cherry-pick, set 5 (AID 720591);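 note: desuccinylation of succinyl peptide AMC substrate read as fluorescence after trypsin release; potency of inhibitors that lower fluorescence and may act on trypsin instead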
Chain of NAD-dependent protein deacylase sirtuin-5, mitochondrial (Q9NXA8 whole entry): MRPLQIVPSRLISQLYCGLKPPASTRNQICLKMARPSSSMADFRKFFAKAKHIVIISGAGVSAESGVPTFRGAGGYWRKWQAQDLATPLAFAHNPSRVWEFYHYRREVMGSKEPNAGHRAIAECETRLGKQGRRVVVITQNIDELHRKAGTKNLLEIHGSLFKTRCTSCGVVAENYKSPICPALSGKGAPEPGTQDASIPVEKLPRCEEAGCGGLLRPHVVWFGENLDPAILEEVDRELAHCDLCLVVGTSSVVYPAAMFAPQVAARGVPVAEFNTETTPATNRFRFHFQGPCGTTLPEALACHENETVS

[4] = molecular target: T1, Caspase-3 (Homo sapiens, UniProt P42574); type: functional;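 note: Dose-response selectivity test against caspase-3 for candidate inhibitors of sentrin-specific proteases (SENPs)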
T1 sequence (P42574 whole entry): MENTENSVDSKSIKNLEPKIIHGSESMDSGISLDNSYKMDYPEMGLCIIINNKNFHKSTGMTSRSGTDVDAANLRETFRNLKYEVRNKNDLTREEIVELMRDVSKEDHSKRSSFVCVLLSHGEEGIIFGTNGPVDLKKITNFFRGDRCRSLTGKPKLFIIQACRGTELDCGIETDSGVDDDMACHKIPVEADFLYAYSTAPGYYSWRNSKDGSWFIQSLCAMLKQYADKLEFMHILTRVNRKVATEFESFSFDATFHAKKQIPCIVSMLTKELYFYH

[5] = molecular target: T2, Sentrin-specific protease 7 (Homo sapiens, UniProt Q9BQF6); type: functional;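 note: Luminescence-based dose-response confirmation of ultra-high-throughput screening hits, measuring inhibition of SENP7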
T2 sequence (Q9BQF6 whole entry): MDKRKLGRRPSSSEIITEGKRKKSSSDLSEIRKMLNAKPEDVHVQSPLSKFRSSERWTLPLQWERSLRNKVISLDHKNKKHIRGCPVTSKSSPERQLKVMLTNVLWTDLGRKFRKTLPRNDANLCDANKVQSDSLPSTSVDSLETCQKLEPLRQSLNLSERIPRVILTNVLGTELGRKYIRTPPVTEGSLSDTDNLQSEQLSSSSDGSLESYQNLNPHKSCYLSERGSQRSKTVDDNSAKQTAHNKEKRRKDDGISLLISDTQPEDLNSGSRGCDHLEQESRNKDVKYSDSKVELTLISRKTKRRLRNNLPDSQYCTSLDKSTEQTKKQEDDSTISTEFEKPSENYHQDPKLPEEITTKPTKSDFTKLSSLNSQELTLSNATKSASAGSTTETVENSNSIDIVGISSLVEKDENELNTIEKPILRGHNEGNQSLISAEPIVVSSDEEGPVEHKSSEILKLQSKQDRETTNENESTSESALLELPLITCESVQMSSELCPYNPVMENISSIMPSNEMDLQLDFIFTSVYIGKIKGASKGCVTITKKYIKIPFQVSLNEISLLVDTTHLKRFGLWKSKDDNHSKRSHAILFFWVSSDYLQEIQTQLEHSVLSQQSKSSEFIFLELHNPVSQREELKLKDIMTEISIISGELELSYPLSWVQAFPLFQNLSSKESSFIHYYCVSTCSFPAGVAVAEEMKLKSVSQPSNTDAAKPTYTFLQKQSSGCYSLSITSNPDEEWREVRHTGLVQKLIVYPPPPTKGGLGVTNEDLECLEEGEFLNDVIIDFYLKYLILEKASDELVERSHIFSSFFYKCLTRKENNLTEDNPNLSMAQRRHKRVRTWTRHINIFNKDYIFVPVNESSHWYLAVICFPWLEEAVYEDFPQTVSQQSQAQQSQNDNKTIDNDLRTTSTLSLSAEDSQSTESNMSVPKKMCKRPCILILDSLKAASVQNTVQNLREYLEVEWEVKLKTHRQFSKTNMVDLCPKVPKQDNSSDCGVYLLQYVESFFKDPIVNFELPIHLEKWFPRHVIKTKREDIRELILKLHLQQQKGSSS

[6] = molecular target: T3, Sentrin-specific protease 6 (Homo sapiens, UniProt Q9GZR1); type: functional;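 note: Luminescence-based dose-response confirmatory assay of SENP6 inhibition, following up an ultra-high-throughput screen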
T3 sequence (Q9GZR1 whole entry): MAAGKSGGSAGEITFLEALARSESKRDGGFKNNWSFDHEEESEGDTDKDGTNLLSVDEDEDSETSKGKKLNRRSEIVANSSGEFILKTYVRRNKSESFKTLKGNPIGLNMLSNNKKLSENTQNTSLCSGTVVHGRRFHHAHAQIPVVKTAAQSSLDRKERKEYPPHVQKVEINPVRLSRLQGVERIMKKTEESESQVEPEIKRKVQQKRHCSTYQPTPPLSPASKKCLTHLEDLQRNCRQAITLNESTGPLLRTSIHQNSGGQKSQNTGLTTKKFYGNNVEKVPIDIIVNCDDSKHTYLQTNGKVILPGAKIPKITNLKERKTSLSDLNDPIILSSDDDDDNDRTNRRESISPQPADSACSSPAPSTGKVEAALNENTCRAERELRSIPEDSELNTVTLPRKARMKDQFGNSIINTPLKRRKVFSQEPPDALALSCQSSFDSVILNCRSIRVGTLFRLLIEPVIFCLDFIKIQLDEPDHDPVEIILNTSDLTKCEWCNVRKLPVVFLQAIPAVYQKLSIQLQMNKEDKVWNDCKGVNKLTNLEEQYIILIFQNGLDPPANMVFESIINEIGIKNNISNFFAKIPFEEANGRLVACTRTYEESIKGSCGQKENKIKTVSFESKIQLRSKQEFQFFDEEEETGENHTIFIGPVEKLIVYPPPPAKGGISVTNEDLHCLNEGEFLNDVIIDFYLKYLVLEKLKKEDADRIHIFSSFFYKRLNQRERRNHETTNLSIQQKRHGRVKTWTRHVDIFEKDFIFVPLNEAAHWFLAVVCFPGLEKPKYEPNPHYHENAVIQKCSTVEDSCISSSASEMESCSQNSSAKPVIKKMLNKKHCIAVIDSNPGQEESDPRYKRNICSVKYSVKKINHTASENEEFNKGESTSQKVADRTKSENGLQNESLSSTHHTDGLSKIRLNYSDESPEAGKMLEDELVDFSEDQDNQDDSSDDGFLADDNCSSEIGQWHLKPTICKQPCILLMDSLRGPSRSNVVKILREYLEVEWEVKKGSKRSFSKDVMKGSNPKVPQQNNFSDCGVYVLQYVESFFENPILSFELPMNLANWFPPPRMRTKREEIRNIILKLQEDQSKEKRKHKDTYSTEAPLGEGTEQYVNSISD

[7] = molecular target: T4, Sentrin-specific protease 8 (Homo sapiens, UniProt Q96LD8); type: functional;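 note: luminescence read-out of SENP8 inhibition, dose-response confirmation following an ultra-high-throughput screen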
T4 sequence (Q96LD8 whole entry): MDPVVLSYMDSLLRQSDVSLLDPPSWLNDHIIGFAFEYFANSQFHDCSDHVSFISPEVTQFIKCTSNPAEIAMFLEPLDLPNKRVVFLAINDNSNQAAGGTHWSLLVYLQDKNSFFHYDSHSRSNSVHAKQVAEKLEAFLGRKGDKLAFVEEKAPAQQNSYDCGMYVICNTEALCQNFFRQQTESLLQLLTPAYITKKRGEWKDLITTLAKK

[8] = molecular target: T5, Oxysterols receptor LXR-beta (Homo sapiens, UniProt P55055); type: functional, cell-based;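 note: Cell-based luminescence dose-response assay of agonist activity at LXR, run as a confirmatory counterscreen to a daf-12 agonist screen; HEK293 cells with Gal4-LXR fusion and GAL4-driven luciferase reporter; agonist potency from rising luciferase signal of a Gal4-LXR reporter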
T5 sequence (P55055 whole entry): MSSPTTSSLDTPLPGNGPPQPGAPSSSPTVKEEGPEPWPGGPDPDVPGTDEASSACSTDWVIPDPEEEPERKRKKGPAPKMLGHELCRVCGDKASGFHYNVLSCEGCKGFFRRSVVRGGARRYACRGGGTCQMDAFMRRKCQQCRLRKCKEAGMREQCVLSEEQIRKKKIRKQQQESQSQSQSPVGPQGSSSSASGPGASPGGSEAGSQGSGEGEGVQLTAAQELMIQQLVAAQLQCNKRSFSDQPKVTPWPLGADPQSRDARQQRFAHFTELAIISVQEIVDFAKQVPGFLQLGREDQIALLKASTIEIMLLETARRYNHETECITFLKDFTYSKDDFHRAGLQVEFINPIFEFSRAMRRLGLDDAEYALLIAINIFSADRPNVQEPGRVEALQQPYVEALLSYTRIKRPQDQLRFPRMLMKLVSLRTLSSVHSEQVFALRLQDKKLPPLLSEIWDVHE

[9] = cells
[10] = HEp-2 cell cytotoxicity, dose response, cytotoxicity control for RSV inhibitor project, HTS (AID 2410); type: functional; details: human respiratory syncytial virus
[11] = molecular target: T6, Heat shock factor protein 1 (Mus musculus, UniProt P38532); experiment: inhibition of MG132-induced HSE-luciferase signal, confirmation, cell-based, NIH3T3, luminescence, dose retest (AID 2382); type: functional;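 note: NIH3T3 fibroblasts with HSF1-driven luciferase reporter stressed by proteasome inhibitor MG132; luminescence from HSF1-driven luciferase expression after 8 hours of MG132 stress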
T6 sequence (P38532 whole entry): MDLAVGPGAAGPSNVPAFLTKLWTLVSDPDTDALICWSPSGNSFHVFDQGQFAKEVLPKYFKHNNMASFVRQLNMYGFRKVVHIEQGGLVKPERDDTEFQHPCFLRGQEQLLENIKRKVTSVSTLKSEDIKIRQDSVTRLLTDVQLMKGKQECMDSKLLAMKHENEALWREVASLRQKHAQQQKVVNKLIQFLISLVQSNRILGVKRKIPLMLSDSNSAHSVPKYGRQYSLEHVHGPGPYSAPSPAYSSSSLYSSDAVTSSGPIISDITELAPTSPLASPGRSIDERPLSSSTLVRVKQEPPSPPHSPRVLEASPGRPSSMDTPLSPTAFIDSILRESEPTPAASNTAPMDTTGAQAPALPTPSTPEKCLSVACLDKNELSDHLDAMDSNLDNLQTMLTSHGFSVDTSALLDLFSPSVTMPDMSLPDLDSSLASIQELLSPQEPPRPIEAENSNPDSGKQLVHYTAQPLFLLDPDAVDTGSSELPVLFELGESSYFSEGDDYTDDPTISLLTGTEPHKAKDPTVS

[12] = molecular target: COUP transcription factor 2 (Homo sapiens, UniProt P24468); experiment: Luminescence-based cell-based high throughput dose response assay to identify inhibitors of COUP-TFII (NR2F2).; type: functional;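 note: HEK293 cells transiently cotransfected with COUP-TFII expression vector and reporter; luciferase reporter luminescence driven by COUP-TFII from the pX2-168 reporter plasmid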
Chain of COUP transcription factor 2 (P24468 whole entry): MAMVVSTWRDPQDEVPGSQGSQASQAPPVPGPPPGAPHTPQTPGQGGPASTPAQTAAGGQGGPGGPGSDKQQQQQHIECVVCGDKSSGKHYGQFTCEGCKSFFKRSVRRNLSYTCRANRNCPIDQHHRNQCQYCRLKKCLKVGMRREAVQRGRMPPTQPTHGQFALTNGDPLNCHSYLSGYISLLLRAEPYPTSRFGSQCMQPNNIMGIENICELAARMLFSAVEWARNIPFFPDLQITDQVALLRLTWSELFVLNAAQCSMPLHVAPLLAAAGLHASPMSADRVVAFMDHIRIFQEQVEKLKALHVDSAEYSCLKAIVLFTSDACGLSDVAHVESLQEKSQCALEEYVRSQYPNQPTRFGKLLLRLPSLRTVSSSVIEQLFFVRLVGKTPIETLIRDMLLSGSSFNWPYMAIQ

[13] = Concentration-dependent survival of SW480 colon cancer line, luminescence detection with CellTiter-Glo, half-maximal inhibitory concentration (AID 1117338); type: functional
[14] = RKO cell viability reduction, dose response, CellTiter-Glo luminescence (AID 1117322); type: functional
[15] = cytotoxicity toward HCT116 cells – cell-based, CellTiter-Glo luminescence, IC50, dose response (AID 1117332); type: functional; details: HCT-116
[16] = SNU-C1 cell viability reduction, dose response, CellTiter-Glo luminescence (AID 1117323); type: functional, cell-based
[17] = cytotoxicity toward Colo320 cells – cell-based, CellTiter-Glo luminescence, IC50, dose response (AID 1117334); type: functional; details: COLO 320
[18] = cytotoxicity toward HT-29 cells – cell-based, CellTiter-Glo luminescence, IC50, dose response (AID 1117330); type: functional
[19] = CellTiter-Glo luminescent dose response of DLD-1 viability loss (AID 1117352); type: functional
[20] = HCT116 cell viability decrease, GSK3B pretreatment – CellTiter-Glo, IC50, dose response (AID 1117339); type: functional; details: HCT-116
[21] = Artemis endonuclease inhibitor potency, dose response, biochemical, fluorescence intensity (AID 720701); type: functional;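 note: Artemis endonuclease enzyme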
[22] = P. falciparum Dd2 growth inhibitors, dose response, SYBR Green, dry powder samples, set 9 (AID 1159568); type: functional, cell-based
[23] = inhibitors of PGC1a acetylation in cells, dose response, cell-based, cherry-picked samples (AID 720514); type: functional;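 note: potency may reflect raised or lowered acetylation signal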
[24] = P. falciparum 3D7-ScDHODH growth inhibitors, dose response, SYBR Green, dry powder samples (AID 1159570); type: functional, cell-based;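 note: parasite growth measured after 72 hours of compound exposure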
[25] = HepG2 cell cytotoxicity, dose response, cytotoxicity control, plate reader, dry powder samples (AID 1159569); type: functional, cell-based;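 note: inhibitor potency with signal falling toward the positive control level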
[26] = P. falciparum Dd2 growth inhibitors, dose response, SYBR Green, dry powder samples (AID 1159566); type: functional, cell-based;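 note: potency for growth inhibition with lower SYBR green DNA signal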
[27] = P. falciparum ATP4 D1247Y mutant growth inhibitors, dose response, NITD609-resistant line, SYBR Green, dry powder (AID 1159571); type: functional, cell-based;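 note: parasites synchronized at ring stage by sorbitol before testing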

Chain of G-protein coupled receptor 183 (P32249 whole entry): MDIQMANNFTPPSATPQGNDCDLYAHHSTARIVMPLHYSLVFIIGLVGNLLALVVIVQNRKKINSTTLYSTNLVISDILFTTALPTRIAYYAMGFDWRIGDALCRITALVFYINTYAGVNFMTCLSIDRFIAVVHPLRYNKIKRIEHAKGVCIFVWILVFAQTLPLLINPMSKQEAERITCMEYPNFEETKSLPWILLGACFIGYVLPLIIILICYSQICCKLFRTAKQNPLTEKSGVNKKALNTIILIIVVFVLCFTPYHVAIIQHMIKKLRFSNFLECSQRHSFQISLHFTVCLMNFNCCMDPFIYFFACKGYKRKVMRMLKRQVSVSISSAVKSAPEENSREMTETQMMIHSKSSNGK

## O=C(/C=C/c1ccc(Br)cc1)N1CCN(C(=O)c2ccccc2)CC1
[1]
  IC50: 0.00062 µM (active)

## COc1ccc(-c2[nH]c3ccccc3c2SCCN)cc1
[2]
  CC50: 28.3 µM (active)

## CC(C)N(C(=O)[C@H]1C[C@H](CC(=O)NCc2cccc(C(F)(F)F)c2)C(=O)N2CCc3c([nH]c4cc(CCC(=O)N(C)C)ccc34)[C@]12C)C(C)C
[3]
  AC50: > 30 µM (inactive)

## Nc1nc(-c2ccccc2)nc2sc3c(c12)CCCC3
[4]
  IC50: 19 µM (active)
[5]
  IC50: 3.08 µM (active)
[6]
  IC50: 10 µM (active)
[7]
  IC50: 5.99 µM (active)
[8]
  EC50: > 67.5 µM (inactive)
[9]
  EC50: > 67.5 µM (inactive)

## O=C(COc1ccc2c(c1)OCO2)Nc1ccc(Cl)cn1
[3]
  AC50: > 30 µM (inactive)

## Cc1ccc(CN2CCN(C(=O)/C=C/c3ccc(Br)cc3)CC2)cc1
[1]
  IC50: 0.00177 µM (active)

## Cc1nc2c(-c3ccccc3)cnn2c(N)c1-c1ccccc1
[10]
  CC50: 17.2 µM (active)
[11]
  EC50: < 0.16 µM (active)
[12]
  IC50: > 9.5 µM (active)

## CCOC(=O)[C@H](CCc1ccccc1)N[C@@H](C)C(=O)N1C(=O)N(C)C[C@H]1C(=O)O
[13]
  IC50: > 20 µM (inactive)
[14]
  IC50: > 20 µM (inactive)
[15]
  IC50: > 20 µM (inactive)
[16]
  IC50: > 20 µM (inactive)
[17]
  IC50: > 20 µM (inactive)
[18]
  IC50: > 20 µM (inactive)
[19]
  IC50: > 20 µM (inactive)
[20]
  IC50: > 20 µM (inactive)

## COc1ccc(C2CC(c3ccc(Cl)cc3)Nc3nc(NC(=O)c4ccco4)nn32)cc1 (stereo not drawn)
[21]
  IC50: 11.8 µM (active)

## CSc1ccc(/C=C2/C(C)=C(CC(=O)O)c3cc(F)ccc32)cc1 [SULINDAC SULFIDE]
[13]
  IC50: 20 µM (inactive)
[14]
  IC50: > 20 µM (inactive)
[15]
  IC50: > 20 µM (inactive)
[16]
  IC50: 12 µM (inactive)
[17]
  IC50: > 20 µM (inactive)
[18]
  IC50: > 20 µM (inactive)
[19]
  IC50: > 20 µM (inactive)
[20]
  IC50: > 20 µM (inactive)

## COc1ccc(S(=O)(=O)N(C)C[C@H]2Oc3ccc(NC(=O)Cc4cn(C)c5ccccc45)cc3C(=O)N([C@H](C)CO)C[C@@H]2C)cc1
[22]
  AC50: 0.39 µM (active)

## N#C[C@H]1[C@H](c2ccc(C#CC3CCCC3)cc2)[C@H](CO)N1C(=O)Cc1ccccn1
[23]
  AC50: 20.4 µM (active)

## COc1cccc(CN2[C@H](CO)[C@@H](c3ccccc3)C23CN(Cc2ccccc2OC)C3)c1
[24]
  AC50: 0.999 µM (active)
[25]
  AC50: 23.9 µM (active)
[22]
  AC50: 1.31 µM (active)
[26]
  AC50: 0.47 µM (active)
[27]
  AC50: 0.875 µM (active)
